Data on 28 molecules can be found in US9163007B2, “5-substituted indazoles as kinase inhibitors” (AbbVie Inc., priority 2007, dated 2015).

SMILES strings stand for the structures. pEC50: −log10 of the molar value. Read-outs that look alike come from different tables or passages of the source.

One assay deals with Cdc7/Dbf4 (Homo sapiens (Human), UniProt O00311). As to the kind of experiment: Cdc7 Inhibition Assay.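 Note: reaction mixtures incubated 30 min on streptavidin-coated plates, then quantified by scintillation counting, with inhibition curves fitted by non-linear regression.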 In kind it is biochemical.
Cdc7/Dbf4, sequence (O00311 whole entry): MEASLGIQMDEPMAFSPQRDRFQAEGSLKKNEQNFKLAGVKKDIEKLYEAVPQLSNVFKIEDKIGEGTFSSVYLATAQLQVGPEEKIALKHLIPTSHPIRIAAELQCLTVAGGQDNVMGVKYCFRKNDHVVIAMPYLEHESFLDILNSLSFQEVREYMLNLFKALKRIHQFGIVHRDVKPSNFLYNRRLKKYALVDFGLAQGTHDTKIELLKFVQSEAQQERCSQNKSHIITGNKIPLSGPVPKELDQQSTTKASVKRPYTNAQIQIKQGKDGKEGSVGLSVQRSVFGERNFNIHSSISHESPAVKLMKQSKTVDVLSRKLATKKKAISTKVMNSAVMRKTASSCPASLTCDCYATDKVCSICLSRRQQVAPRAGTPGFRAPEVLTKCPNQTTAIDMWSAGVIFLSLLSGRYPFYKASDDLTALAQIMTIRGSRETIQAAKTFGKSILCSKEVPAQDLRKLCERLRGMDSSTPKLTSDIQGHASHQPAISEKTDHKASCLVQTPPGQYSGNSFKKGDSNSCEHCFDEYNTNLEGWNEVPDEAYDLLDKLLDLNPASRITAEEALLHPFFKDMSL
Cdc7/Dbf4, sequence (Q9UBU7 whole entry partner): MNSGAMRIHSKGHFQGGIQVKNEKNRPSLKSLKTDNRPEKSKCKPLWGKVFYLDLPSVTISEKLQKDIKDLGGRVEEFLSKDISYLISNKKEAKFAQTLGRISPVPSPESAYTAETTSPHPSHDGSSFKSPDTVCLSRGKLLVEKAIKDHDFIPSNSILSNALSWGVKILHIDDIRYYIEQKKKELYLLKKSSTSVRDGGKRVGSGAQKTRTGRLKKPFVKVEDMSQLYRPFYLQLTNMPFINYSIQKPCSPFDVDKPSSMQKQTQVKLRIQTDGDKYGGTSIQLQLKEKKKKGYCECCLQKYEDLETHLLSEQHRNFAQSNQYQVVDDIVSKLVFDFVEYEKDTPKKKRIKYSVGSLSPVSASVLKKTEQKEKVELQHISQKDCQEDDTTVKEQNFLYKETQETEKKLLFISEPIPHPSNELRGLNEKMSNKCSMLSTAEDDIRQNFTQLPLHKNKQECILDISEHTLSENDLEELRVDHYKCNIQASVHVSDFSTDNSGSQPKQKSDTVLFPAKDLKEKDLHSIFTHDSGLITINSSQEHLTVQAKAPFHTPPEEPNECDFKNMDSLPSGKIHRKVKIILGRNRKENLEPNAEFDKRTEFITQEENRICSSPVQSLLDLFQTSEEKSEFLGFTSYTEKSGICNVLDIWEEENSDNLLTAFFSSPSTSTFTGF
Assay [1] relates to phospho-MCM2 Ser53 in HCT-116 cells. As to the kind of experiment: Phospho-MCM2 ELISA. In kind it is cell-based. The settings on record: Homo sapiens, treated 6 hours. As for the experimental part: HCT-116 cells (20,000/well; 96-well format) were treated for 6 hours with increasing concentrations of compounds (0.01-10 μM in half-log increments). After removing the medium/inhibitor, the cells were frozen for 5 minutes and treated on ice with 20 μL of lysis buffer (Invitrogen #FNN0011) for 30 minutes. 80 μL of cold 2% BSA (in PBS) were then added to each well before transferring 80 μL to MCM2 antibody-coated plates (Bethyl #A300-122A, lot A300-122A-1). The plates were incubated overnight at 4° C., washed, and then incubated with the sandwich antibody (1:100 rabbit anti-human phospho-MCM2 Ser53; Bethyl #A300-756A, lot A300-756A-2) for 2 hours at room temperature. After another series of washes the samples are incubated for 1 hour with detection antibody (XSA-grade goat anti-rabbit-HRP, KPL #074-15-061, lot 50884, diluted to 2 μg/mL in 2% BSA). Plates were washed, developed using luminescence substrate (SuperSignal Pico for ELISA, Pierce #37069, Lot. HB101408), and read on a Molecular Devices M5 luminometer.
A general note: ELISA stands for enzyme-linked immunosorbent assay.

The subject of the next assay is HCT-116 cells. As to the kind of experiment: AlamarBlue Cell Viability Assays. It is filed as cell-based. The settings on record: Homo sapiens, treated 72 hours. As for the experimental part:
AlamarBlue Cell Viability Assays
HCT-116 cells (3,000/well; 96-well format) were treated for 72 hours with increasing concentrations of compounds (0.01-30 μM in half-log increments). The cells were then incubated in fresh media with 10% AlamarBlue reagent (Invitrogen #DAL1100). AlamarBlue reactions were incubated according to the manufacturer's instructions (approximately 4 hours) and then analyzed using an fmax fluorescence microplate reader (Molecular Devices) using excitation/emission wavelengths of 544/595 nm. Data were analyzed using SOFTmax PRO software provided by the manufacturer.
Background: Resazurin is reduced to fluorescent resorufin, in cell work by metabolically active cells.

Setting [2] is: 11 data point, read-out: Ki (μM) 11 data point.
[3] abbreviates: 6 data point, read-out: Ki (μM) 6 data point.

Procedure for Cdc7/Dbf4: The reactions were incubated for 30 minutes on streptavidin-coated plates, washed, and quantified using a TopCount scintillation plate reader (Packard). IC50 values are determined via non-linear regression fitting of the data.

For the molecule `c1ccc(Cn2cc(-c3ccc4[nH]nc(-c5cn(Cc6ccccc6)nn5)c4c3)nn2)cc1` [Example 60, 3,5-bis(1-benzyl-1H-1,2,3-triazol-4-yl)-1H-indazole], the Ki at Cdc7/Dbf4 (setting [2]) came out at 0.0556 µM. Besides, the pEC50 was below 5.00 in assay [1] and 6.84 in the assay with HCT-116 cells.
For `c1ccc(Cn2cc(-c3ccc4[nH]nc(-c5ccccc5)c4c3)nn2)cc1` [Example 61, 5-(1-benzyl-1H-1,2,3-triazol-4-yl)-3-phenyl-1H-indazole] the same measures were 0.0077 µM, 5.06 and 5.40.
Regarding `Nc1n[nH]c2ccc(-c3cn(Cc4ccccc4)nn3)cc12` [Example 62, 5-(1-benzyl-1H-1,2,3-triazol-4-yl)-1H-indazol-3-amine], the values for the pEC50 (in assay [1]; with HCT-116 cells) were below 5.00 and 5.34, respectively.
For `COCC(=O)Nc1n[nH]c2ccc(-c3cn(Cc4ccccc4)nn3)cc12` [Example 64, N-[5-(1-benzyl-1H-1,2,3-triazol-4-yl)-1H-indazol-3-yl]-2-methoxyacetamide], the inhibition constant Ki on Cdc7/Dbf4 (setting [2]) is 0.015 µM. Besides, the pEC50 in assay [1] was below 5.00; with HCT-116 cells, 6.37.
Regarding `O=C(Nc1n[nH]c2ccc(-c3cn(Cc4ccccc4)nn3)cc12)c1ccccc1` [Example 73, N-[5-(1-benzyl-1H-1,2,3-triazol-4-yl)-1H-indazol-3-yl]benzamide], the negative logarithm of the EC50 (pEC50) in assay [1] was 5.71; with HCT-116 cells, 6.12.
On to `c1ccc(Cn2nnc(-c3ccc4[nH]ncc4c3)c2-c2ccccc2)cc1` [Example 87, 5-(1-benzyl-5-phenyl-1H-1,2,3-triazol-4-yl)-1H-indazole], for which, on Cdc7/Dbf4 (setting [2]), the Ki was determined as 0.000601 µM. In addition, the pEC50 in assay [1] was 5.23; in the assay with HCT-116 cells, 4.96.
As for `Nc1n[nH]c2ccc(-c3nnn(Cc4ccccc4)c3C3CC3)cc12` [Example 89, 5-(1-benzyl-5-cyclopropyl-1H-1,2,3-triazol-4-yl)-1H-indazol-3-amine], the Ki at Cdc7/Dbf4 (setting [2]) was found to be 0.035 µM. In addition, the negative-log EC50 (pEC50) in assay [1] is below 5.00; in the assay on HCT-116 cells, 5.26.
Regarding `Nc1n[nH]c2ccc(-c3nnn(Cc4ccccc4)c3-c3ccccc3)cc12` [Example 102, 5-(1-benzyl-5-phenyl-1H-1,2,3-triazol-4-yl)-1H-indazol-3-amine], the negative logarithm of the EC50 (pEC50) (in assay [1]; in the assay with HCT-116 cells) was 5.50 in each case.
In the case of `Cc1c(-c2ccc3[nH]nc(N)c3c2)nnn1Cc1ccccc1` [Example 123, 5-(1-benzyl-5-methyl-1H-1,2,3-triazol-4-yl)-1H-indazol-3-amine], the figures for the negative-log EC50 (pEC50) (in assay [1]; in the assay with HCT-116 cells) were below 5.00 and 5.41, respectively.
Turning to `Nc1n[nH]c2ccc(-c3nnn(Cc4ccccc4)c3-c3ccc(F)cc3)cc12` [Example 151, 5-[1-benzyl-5-(4-fluorophenyl)-1H-1,2,3-triazol-4-yl]-1H-indazol-3-amine], the negative-log EC50 (pEC50) is 5.43 in assay [1] and 5.06 in the assay on HCT-116 cells.
Consider `Cc1ccccc1-c1c(-c2ccc3[nH]nc(C)c3c2)nnn1Cc1ccccc1` [Example 162, 5-[1-benzyl-5-(2-methylphenyl)-1H-1,2,3-triazol-4-yl]-3-methyl-1H-indazole], for which the Ki at Cdc7/Dbf4 (setting [2]) stood at 0.00225 µM. In addition, the negative logarithm of the EC50 (pEC50) in assay [1] was 5.24; in the assay with HCT-116 cells it was 5.84.
For `Cc1ccccc1-c1c(-c2ccc3[nH]nc(N)c3c2)nnn1Cc1ccccc1` [Example 163, 5-[1-benzyl-5-(2-methylphenyl)-1H-1,2,3-triazol-4-yl]-1H-indazol-3-amine], the pEC50 in assay [1] was 5.03; in the assay on HCT-116 cells it was 6.03.
On to `Fc1ccc(-c2c(-c3ccc4[nH]ncc4c3)nnn2CC2CCOCC2)cc1` [Example 167, 5-[5-(4-fluorophenyl)-1-(tetrahydro-2H-pyran-4-ylmethyl)-1H-1,2,3-triazol-4-yl]-1H-indazole], for which, at Cdc7/Dbf4 (setting [2]), the Ki stood at 0.00105 µM. For the same molecule, the pEC50 in assay [1] was 5.37; in the assay with HCT-116 cells, 4.74.
For `CN(C)c1ccc(-c2c(-c3ccc4[nH]nc(N)c4c3)nnn2Cc2ccccc2)cc1` [Example 185, 5-{1-benzyl-5-[4-(dimethylamino)phenyl]-1H-1,2,3-triazol-4-yl}-1H-indazol-3-amine] the same measures were 0.0004 µM, 5.26 and 4.65.
For `Cn1cc(-c2c(-c3ccc4[nH]nc(N)c4c3)nnn2Cc2ccccc2)cn1` [Example 189, 5-[1-benzyl-5-(1-methyl-1H-pyrazol-4-yl)-1H-1,2,3-triazol-4-yl]-1H-indazol-3-amine] the same measures were 0.0019 µM, 5.27 and 4.72.
For `Nc1n[nH]c2ccc(-c3nnn(Cc4ccccc4)c3-c3cccc(N4CCOCC4)c3)cc12` [Example 194, 5-[1-benzyl-5-(3-morpholin-4-ylphenyl)-1H-1,2,3-triazol-4-yl]-1H-indazol-3-amine], in that order: 0.068 µM, below 5.00 and 5.36.
As for `O=C(Nc1n[nH]c2ccc(-c3nnn(Cc4ccccc4)c3-c3ccccc3)cc12)c1ccccc1` [Example 198, N-[5-(1-benzyl-5-phenyl-1H-1,2,3-triazol-4-yl)-1H-indazol-3-yl]benzamide], the inhibition constant Ki was determined as 0.0008 µM on Cdc7/Dbf4 (setting [3]) and 0.0009 µM on Cdc7/Dbf4 (setting [2]). For the same molecule, the pEC50 is 5.38 in assay [1] and 5.54 in the assay on HCT-116 cells.
For `COc1ccc(NC(=O)Nc2n[nH]c3ccc(-c4nnn(Cc5ccccc5)c4-c4ccccc4)cc23)cc1` [Example 200, N-[5-(1-benzyl-5-phenyl-1H-1,2,3-triazol-4-yl)-1H-indazol-3-yl]-N′-(4-methoxyphenyl)urea], the inhibition constant (Ki) at Cdc7/Dbf4 (setting [2]) was found to be 0.013 µM. For the same molecule, in the assay on HCT-116 cells, the pEC50 was 4.87.
As to `O=C(Nc1nn(C(=O)c2ccccc2)c2ccc(-c3nnn(Cc4ccccc4)c3C3CC3)cc12)c1ccccc1` [Example 204, N-[1-benzoyl-5-(1-benzyl-5-cyclopropyl-1H-1,2,3-triazol-4-yl)-1H-indazol-3-yl]benzamide], at Cdc7/Dbf4 (setting [2]), the inhibition constant Ki came out at 0.11 µM. Further, the values for the pEC50 (in assay [1]; in the assay on HCT-116 cells) were 5.21 and 6.89, respectively.
Consider `O=C(Nc1n[nH]c2ccc(-c3nnn(Cc4ccccc4)c3C3CC3)cc12)c1cccc(F)c1` [Example 205, N-[5-(1-benzyl-5-cyclopropyl-1H-1,2,3-triazol-4-yl)-1H-indazol-3-yl]-3-fluorobenzamide], for which the inhibition constant (Ki) stood at 0.0009 µM at Cdc7/Dbf4 (setting [3]) and 0.0024 µM on Cdc7/Dbf4 (setting [2]). For the same molecule, the pEC50 is below 5.00 in assay [1] and 6.23 in the assay on HCT-116 cells.
As to `CCS(=O)(=O)Nc1n[nH]c2ccc(-c3nnn(Cc4ccccc4)c3C3CC3)cc12` [Example 216, N-[5-(1-benzyl-5-cyclopropyl-1H-1,2,3-triazol-4-yl)-1H-indazol-3-yl]ethanesulfonamide], at Cdc7/Dbf4 (setting [2]), the Ki was determined as 0.12 µM. Also, the pEC50 in the assay with HCT-116 cells is 4.72.
Regarding `Clc1ccccc1CNc1n[nH]c2ccc(-c3nnn(Cc4ccccc4)c3C3CC3)cc12` [Example 222, 5-(1-benzyl-5-cyclopropyl-1H-1,2,3-triazol-4-yl)-N-(2-chlorobenzyl)-1H-indazol-3-amine], the inhibition constant (Ki) on Cdc7/Dbf4 (setting [2]) came out at 0.093 µM. Moreover, the pEC50 is below 5.00 in assay [1] and 5.68 in the assay on HCT-116 cells.
For the molecule `O=C(Nc1n[nH]c2ccc(-c3nnn(Cc4ccccc4)c3C3CC3)cc12)c1cccc(Cl)c1` [Example 224, N-[5-(1-benzyl-5-cyclopropyl-1H-1,2,3-triazol-4-yl)-1H-indazol-3-yl]-3-chlorobenzamide], the pEC50 in assay [1] is below 5.00; in the assay with HCT-116 cells, 5.62.
`Clc1ccc(CNc2n[nH]c3ccc(-c4nnn(Cc5ccccc5)c4C4CC4)cc23)cc1` [Example 227, 5-(1-benzyl-5-cyclopropyl-1H-1,2,3-triazol-4-yl)-N-(4-chlorobenzyl)-1H-indazol-3-amine]: the Ki on Cdc7/Dbf4 (setting [2]) came out at 0.015 µM. The pEC50 was below 5.00 in assay [1] and 5.85 in the assay with HCT-116 cells.
Turning to `O=C(Nc1n[nH]c2ccc(-c3cn(Cc4ccccc4)nn3)cc12)c1cccc(F)c1` [Example 395, N-[5-(1-benzyl-1H-1,2,3-triazol-4-yl)-1H-indazol-3-yl]-3-fluorobenzamide], the pEC50 in assay [1] is 5.52; in the assay on HCT-116 cells, 6.50.
`COC(=O)c1n[nH]c2ccc(-c3cn(Cc4ccccc4)nn3)cc12` [Example 397, methyl 5-(1-benzyl-1H-1,2,3-triazol-4-yl)-1H-indazole-3-carboxylate]: the inhibition constant Ki on Cdc7/Dbf4 (setting [2]) was found to be 0.0811 µM. In the assay on HCT-116 cells, this molecule had a pEC50 of 4.61.
For `Nc1n[nH]c2ccc(-c3nnn(Cc4ccccc4)c3C3CCCCC3)cc12` [Example 402, 5-(1-benzyl-5-cyclohexyl-1H-1,2,3-triazol-4-yl)-1H-indazol-3-amine] the same measures were 0.037 µM and 7.43.
As to `Cc1n[nH]c2ccc(-c3nnn(Cc4ccccc4)c3-c3ccc(F)cc3)cc12` [Example 408, 5-[1-benzyl-5-(4-fluorophenyl)-1H-1,2,3-triazol-4-yl]-3-methyl-1H-indazole], the figures for the pEC50 (in assay [1]; in the assay on HCT-116 cells) were 5.71 and below 4.52, respectively.

As usually defined, the Ki is the equilibrium dissociation constant of an inhibitor or competing ligand from its target. In general, pEC50 refers to −log10 of the EC50, conventionally taken in molar units. A lower pEC50 goes with a high EC50.
